In patent US20070053883A1, “Neuronal cell lineages and methods of production thereof” (THE JOHNS HOPKINS UNIVERSITY, priority 2003, published 2007):
“Also recorded” adds a separate entry of the source.

Key:
Hh pathway [1] = experiment: Response of cells to ShhNp protein under sterol-specific perturbations (data not shown); assay type: cell-based
Excerpt: Cyclodextrins form complexes with hydrophobic compounds including proteins and phospholipids in addition to sterols^6.

Hh pathway [2] = experiment: Shh signaling assay in NIH3T3 Shh-LIGHT Z3 cells (Gli luciferase reporter); assay type: cell-based
Description: (§1) Shh signaling assays. Shh signaling assays were carried out as described^16 in primary fibroblasts lacking functional Dhcr7, Sc5d or Ptch and in NIH3T3 fibroblasts. Dhcr7^−/− and Dhcr7^+/− MEFs were generated from embryonic day-9 mutant mice and Sc5h1 and Sc5d^−/− and Sc5d^+/− MEFs from embryonic day-14.5 mutant mice. We generated a reporter construct with firefly luciferase and Gli (pGL3-8xGli-luciferase) by cloning eight tandem Gli-binding sites and a lens crystallin promoter from the 8xGli-BS Luc construct^22 into the pGL3-Basic vector (Promega). We determined relative Hh pathway activity in Dhcr7^−/−, Dhcr7^+/−, Sc5d^+/+ and Sc5d^+/− MEFs from the expression of transiently transfected pGL3-8xGli-luciferase and control Renilla luciferase (pRL-SV40; Promega) vectors. In Ptch^−/− MEFs, we normalized β-galactosidase activity expressed under the control of the Ptch promoter for protein levels to determine relative Hh pathway activity. In the NIH3T3 cell clone Shh-LIGHT Z3, we normalized 8xGli-BS luciferase activity for β-galactosidase activity from stably transfected vectors (8xGli-BS Luc^22 and piZ-lacZ). We established clonal sublines of Shh-LIGHT Z3 by cotransfecting either Smo tagged with Myc epitope or SmoA1 with vector encoding G418 resistance (pGT; Invivogen). All transfections were done with Fugene 6. We carried out cyclodextrin treatments for 30 min with methyl-β-cyclodextrin (Sigma) dissolved in Dulbecco's modified Eagle medium, preceded and followed by two washes with phosphate-buffered saline. Fetal bovine serum was depleted of lipids as described^23. We purchased compactin as an active sodium salt form of mevastatin (Biomol) and dissolved it in dimethylsulfoxide.
(§2) The combination of transient cyclodextrin treatment followed by inhibition of cholesterol synthesis blocked the response to ShhNp, whereas neither treatment alone did so. FIG. 4c, Hh path way inhibition persisted for 72 h after cyclodextrin treatment. The 3-d recovery period was intended to allow replenishment of non-sterol cellular components depleted by transient cyclodextrin treatment while maintaining sterol depletion with HMG-CoA reductase inhibition by compactin. FIG. 4d, Total cellular sterols from parallel cultures of NIH3T3 (c, 36 h), Dhcr7^−/− and Sc5d^−/− (FIG. 3b) MEFs were determined by gas chromatography-mass spectrometry analysis of extracted lipids and plotted against the relative Shh pathway activity. Bars represent one standard error (quadruplicate wells).

chick embryos = experiment: Cyclodextrin treatment of chick embryos in ovo, facial features by scanning electron microscopy; assay type: in vivo; conditions: 375 μM cyclodextrin in ovo, applied after 15 h of incubation, early-primitive-streak stage, embryonic day 5
Description: (§3) Chick embryos. Methyl-β-cyclodextrin (200 μl of a 10% w/v solution in L-15 medium (Sigma and Life Technologies)) was applied to windowed, fertile chick eggs (White Leghorn) after 15 h of incubation. For an average egg volume of 50 ml, the final concentration of cyclodextrin was 375 μM. After 4 d of further incubation, we processed the embryos for scanning electron microscopy. The neural plate and epidermal ectoderm was dissected from stage 9-10 chick embryos, cultured them in collagen and induced them with purified Sonic Hh N-terminal peptide ShbN^21 as described^3. Methyl-β-cyclodextrin was added to the chick explant cultures 4 h after induction with ShhN was initiated.
To determine how cholesterol may affect Hh signaling in embryonic development, chick embryos were exposed to cyclodextrin, a cyclic oligosaccharide that forms non-covalent complexes with sterols and can be used to extract and deplete cholesterol from living cells. […] The most severely affected embryos developed a proboscis-like structure that phenocopies the nasal rudiments of mouse embryos that are homozygous with respect to mutations in the gene Sonic hedgehog (Shh; ref. 8).
FIG. 2a provides scanning electron micrographs of facial features at embryonic day 5 of a control (control) chick embryo and of embryos exposed to 375 μM cyclodextrin (CD). […]

[3] = system: chick neural-plate explants; experiment: Chick neural-plate explants induced with ShhN, stained for HNF3β or lSL1; assay type: cell-based
Description: as §3
It was further investigated whether SSH signaling in embryonic tissues by exposing chick neural-plate explants to recombinant Shh protein (ShhN, 30 nm) in the presence of cyclodextrin (FIG. 2b). FIG. 2b provides confocal microscope images of stage 9-10 chick embryo ectoderm dissected from a region of the neural plate intermediate to the notochord and roof plate and just rostral to Hensen's node. Explants were cultured for 48 h in collagen and stained for HNF3β or lSL1, as indicated.

neural-crest cells = experiment: BMP-induced migration of neural-crest cells from dorsal neural plate explants; assay type: cell-based, chick; conditions: 400 μM cyclodextrin alone, 48 h of culture
Description: as §3
Dorsal neural plate progenitor cells and an endogenous source of BMP, the adjacent epidermal ectoderm, were dissected from a region just rostral to Hensen's node in stage 9-10 chick embryos.

Shh autoprocessing = experiment: Analysis of Shh protein biogenesis (autoprocessing) in MEFs; assay type: cell-based, mouse; conditions: Dhcr7−/− or Sc5d−/− MEFs; transient (30 min, 3.8 mM) cyclodextrin treatment, lipid-depleted serum
Description: Analysis of Shh protein biogenesis. MEFs were plated in a 10-cm^2 dish (Falcon) and transfected them (Fugene 6, Roche) with a full length Shh expression construct (pRK5-Shh, 5 μg) when the cells were roughly 75% confluent. The next day, we changed the culture medium (Dulbecco's modified Eagle medium with 10% fetal bovine serum) to contain either 0.5% fetal bovine serum, 0.5% lipid-depleted serum or lipid-depleted serum after a 30-min treatment with 3.8 mM methyl-β-cyclodextrin (Sigma). After an additional 24 h in culture, we lysed the MEFs in RIPA buffer (50 mM Tris-C1, pH 7.5, 150 mM NaCl, 1% Nonidet P-40, 0.5% sodium deoxycholate, 1 mM EDTA, 1 μg ml^−1 leupeptin, 1 μg ml aprotinin^−1, 0.2 mM phenylmethylsulfonyl fluoride), immunoprecipitated Shh protein from the cell lysates with a monoclonal antibody that recognizes the N-terminal signaling domain (5E1, Developmental Studies Hybridoma Bank) and immunoblotted them with a polyclonal antibody preparation (JH134). […]

Hh pathway [4] = experiment: Shh signaling assay in Dhcr7 and Sc5d MEFs (Hh-responsive firefly luciferase reporter); assay type: cell-based, mouse
Description: Shh signaling assays. Shh signaling assays were carried out as described^16 in primary fibroblasts lacking functional Dhcr7, Sc5d or Ptch and in NIH3T3 fibroblasts. Dhcr7^−/− and Dhcr7^+/− MEFs were generated from embryonic day-9 mutant mice and Sc5h1 and Sc5d^−/− and Sc5d^+/− MEFs from embryonic day-14.5 mutant mice. We generated a reporter construct with firefly luciferase and Gli (pGL3-8xGli-luciferase) by cloning eight tandem Gli-binding sites and a lens crystallin promoter from the 8xGli-BS Luc construct^22 into the pGL3-Basic vector (Promega). We determined relative Hh pathway activity in Dhcr7^−/−, Dhcr7^+/−, Sc5d^+/+ and Sc5d^+/− MEFs from the expression of transiently transfected pGL3-8xGli-luciferase and control Renilla luciferase (pRL-SV40; Promega) vectors. […]
The effect of cholesterol depletion on responsiveness of Dhcr7^+/− (gray bars), Dhcr7^−/− (maroon bars), Sc5d^+/− (gray bars), and Sc5d^−/− (green bars) MEFs to Shh signaling was assayed by transfection with a Hh-responsive firefly luciferase reporter and treatment with purified ShhNp (10 nM). […] For each culture condition, normalized firefly luciferase activity from control and ShhNp treated cells was used to calculate the relative induction, expressed as a percentage of the Shh induction achieved in MEFs cultured in full serum. […]

[5] = system: Hh pathway downstream of Ptch; experiment: Constitutive Hh pathway activity in Ptch−/− MEFs (β-galactosidase); assay type: cell-based, mouse; conditions: transient treatment with increasing concentrations of cyclodextrin in combination with compactin
Description: as §1, with “We carried out cyclodextrin treatments for 30 min with methyl-β-cyclodextrin (Sigma) dissolved in Dulbecco's modified Eagle medium, preceded and followed by two washes with phosphate-buffered saline. Fetal bovine serum was depleted of lipids as described^23. We purchased compactin as an active sodium salt form of mevastatin (Biomol) and dissolved it in dimethylsulfoxide.” left out

Smo = target: T1, Smo (Mus musculus, UniProt P56726); experiment: Shh pathway activation by overexpression of wild-type Smo in NIH3T3 cells; assay type: cell-based; conditions: cholesterol depletion by cyclodextrin and compactin treatments
T1 construct: expressed in transfected cells
Description: as §1, with “We carried out cyclodextrin treatments for 30 min with methyl-β-cyclodextrin (Sigma) dissolved in Dulbecco's modified Eagle medium, preceded and followed by two washes with phosphate-buffered saline. Fetal bovine serum was depleted of lipids as described^23. We purchased compactin as an active sodium salt form of mevastatin (Biomol) and dissolved it in dimethylsulfoxide.” left out

SmoA1 = target: T2, SmoA1 (Mus musculus, UniProt P56726, W539L); experiment: Shh pathway activity driven by oncogenic Smo (SmoA1, W539L) in NIH3T3 cells; assay type: cell-based; conditions: cholesterol depletion by cyclodextrin and compactin treatments
T2 construct: expressed in transfected cells
Description: as §1, with “We carried out cyclodextrin treatments for 30 min with methyl-β-cyclodextrin (Sigma) dissolved in Dulbecco's modified Eagle medium, preceded and followed by two washes with phosphate-buffered saline. Fetal bovine serum was depleted of lipids as described^23. We purchased compactin as an active sodium salt form of mevastatin (Biomol) and dissolved it in dimethylsulfoxide.” left out

[6] = system: Dhcr7−/− and Sc5d−/− MEFs; experiment: Sterol analysis of MEFs cultured in parallel with signaling assays; assay type: cell-based, mouse; conditions: lipid-depleted serum
Description: Sterol analysis. Neutral sterols were extracted and analyzed as described^24 from replicate wells of MEFs cultured in parallel with those used for signaling assays.
as §2

[7] = 400 μM cyclodextrin, 30 nM ShhN, 48 h

T2 sequence (P56726 33-793 W539L): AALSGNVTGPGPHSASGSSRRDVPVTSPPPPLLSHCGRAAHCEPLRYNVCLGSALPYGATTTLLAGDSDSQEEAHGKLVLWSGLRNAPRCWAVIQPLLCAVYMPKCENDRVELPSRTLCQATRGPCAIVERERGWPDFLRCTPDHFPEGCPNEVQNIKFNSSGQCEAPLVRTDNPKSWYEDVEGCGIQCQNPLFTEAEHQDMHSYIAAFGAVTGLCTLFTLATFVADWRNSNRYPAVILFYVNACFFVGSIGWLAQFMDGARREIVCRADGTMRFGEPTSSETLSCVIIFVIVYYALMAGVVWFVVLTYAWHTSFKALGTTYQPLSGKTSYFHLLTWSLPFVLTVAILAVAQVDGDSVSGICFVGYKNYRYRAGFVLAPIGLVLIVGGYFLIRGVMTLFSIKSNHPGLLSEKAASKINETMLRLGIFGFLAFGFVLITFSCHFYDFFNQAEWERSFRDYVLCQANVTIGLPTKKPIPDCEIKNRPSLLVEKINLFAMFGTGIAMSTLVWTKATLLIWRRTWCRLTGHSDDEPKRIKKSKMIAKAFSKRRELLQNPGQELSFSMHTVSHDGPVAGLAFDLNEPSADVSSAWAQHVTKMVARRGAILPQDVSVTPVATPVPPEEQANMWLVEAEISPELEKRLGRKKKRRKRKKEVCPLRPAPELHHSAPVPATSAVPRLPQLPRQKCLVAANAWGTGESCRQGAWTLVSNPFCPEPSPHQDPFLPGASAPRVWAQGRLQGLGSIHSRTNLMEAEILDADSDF
T1 sequence (P56726 33-793): as the sequence (P56726 33-793 W539L) above, with L507W counted along it

Compound: CCCCC[C@@H](O)[C@H]1C(=O)O[C@H](C)[C@@H](O)/C=C/C=C/C=C/C=C/C=C(\C)[C@@H](O)C[C@H](O)C[C@H](O)C[C@H](O)C[C@H](O)C[C@H](O)C[C@@H]1O [filipin]
- response of cells to ShhNp protein (Hh pathway [1]): blocked

Compound: CC[C@H](C)C(=O)O[C@H]1CCC=C2C=C[C@H](C)[C@H](CC[C@@H]3C[C@@H](O)CC(=O)O3)[C@H]21 [compactin]
- ShhNp response under compactin alone (Hh pathway [2]; continuous exposure to compactin): not affected

Compound: C[C@@H]1[C@H](O)[C@@H](C)/C=C/C=C/CC/C=C/C=C/C=C/C=C/C(O[C@H]2O[C@H](C)[C@@H](O)[C@H](N)[C@@H]2O)CC2O[C@](O)(CC(O)C(O)CCC(O)CC(O)CC(O)CC(=O)O[C@H]1C)CC(O)C2C(=O)O (stereo partly shown) [nystatin]
- response of cells to ShhNp protein (Hh pathway [1]): blocked

Compound: Methyl-β-cyclodextrin
- developmental malformation of facial and midline structures (chick embryos): variable loss of midline tissues
- developmental malformation of facial and midline structures (chick embryos; listed as Cyclodextrin): variable loss of the frontonasal process and other midline structures; also recorded: holoprosencephaly
- HNF3β and lSL1 marker expression ([3]; 200 μM cyclodextrin, 30 nM ShhN, 48 h): both HNF3μ and lSL1 were expressed
- high-threshold response to ShhN (HNF3β) [3, 7]: blocked
- lSL1 expression (intermediate-threshold response, motor-neuron fate) [3, 7]: substantially uniform expression of lSL1
- differentiation of neural plate explant cells as motor neurons ([3]; 400 μM β-methyl CD in conjunction with 30 nM ShhN): all cells
- cellular response to Shh protein (FIG. 2b) ([3]; cyclodextrin treatment, concentration not given in legend): inhibited the cellular response to Shh protein
- BMP-induced migration of neural-crest cells (neural-crest cells): did not inhibit
- Shh autoprocessing (Shh autoprocessing): no observable effect
- ability to respond to Shh signal (Hh pathway [4]; Dhcr7 and Sc5d mutant MEFs, transient 30-min cyclodextrin, lipid-depleted medium, ShhNp 10 nM): clear deficiencies in their ability to respond to Shh signal
- response to ShhNp stimulation (Hh pathway [4]; cells heterozygous for Dhcr7 and Sc5d mutations, all growth conditions incl. transient cyclodextrin): normal response
- inhibition of Shh signal response (Hh pathway [2]; continuous treatment with 500 μM cyclodextrin): about 50%
- inhibition of Shh signal response (Hh pathway [2]; continuous treatment with 2 mM cyclodextrin): nearly complete inhibition
- response to Shh signaling under chronic cyclodextrin (Hh pathway [2]; cyclodextrin in culture medium for the duration of ShhNp induction, comparable to 5 μM cyclopamine): dose dependent manner; also recorded: inhibited
- Shh signal response, transient cyclodextrin combined with continuous compactin (Hh pathway [2]; transient cyclodextrin before ShhNp induction, then compactin during induction): blocked; also recorded: inhibited
- persistence of Hh pathway inhibition after cyclodextrin treatment (Hh pathway [2]; transient cyclodextrin, sterol depletion maintained with compactin): 72 h
- ShhNp response after transient cyclodextrin alone (Hh pathway [2]; transient treatment for 30 minutes before ShhNp, even at 15 mM cyclodextrin): did not affect response
- constitutive Hh pathway activity in Ptch−/− fibroblasts [5]: dose-dependent reduction
- constitutive Hh pathway activity in Ptch−/− fibroblasts ([5]; listed as Cyclodextrin): blocked
- Shh pathway activation by overexpressed wild-type Smo (Smo): inhibited
- Shh pathway activity driven by SmoA1 (SmoA1): resistant to inhibition
- sterol levels after initial transient cyclodextrin treatment, needed to affect pathway response [6]: below 40 μg mg^−1 protein
